The values below come from the supplement of paper PMC10307832.

Common to all, as to test: relative viability (nuclei count vs DMSO), 5 days (fraction); higher = more cells survive
Compound in the test “XMD14-99 + Vorinostat”: CN1CCN(CC1)C2=CC(=C(C=C2)NC3=NC(=C(S3)C(=O)C4=C(C=CC=C4Cl)Cl)N)OC [XMD14-99] + O=C(CCCCCCC(=O)Nc1ccccc1)NO [Vorinostat] (partner 1 µM)
An outline of the steps:
(§1)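 Medians of duplicate plates are given as relative viability. That measure is the nuclei count in treated wells divided by the count in vehicle wells. Counts were taken on 4× images of lung cancer cell lines in 1536-well plates, 5 days after pin-tool dosing the day after seeding with one drug alone or a fixed anchor-drug dose plus five library-drug doses (not always all listed) in √10 steps.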

Compound in the test “AZD1208 + Dasatinib”: N[C@@H]1CCCN(c2c(/C=C3\SC(=O)NC3=O)cccc2-c2ccccc2)C1 [AZD1208] + Cc1nc(Nc2ncc(C(=O)Nc3c(C)cccc3Cl)s2)cc(N2CCN(CCO)CC2)n1 [Dasatinib] (partner 0.075 µM)
An outline of the steps: as §1

Compound in the test “AZD1208 + Decitabine”: N[C@@H]1CCCN(c2c(/C=C3\SC(=O)NC3=O)cccc2-c2ccccc2)C1 [AZD1208] + Nc1ncn([C@H]2C[C@H](O)[C@@H](CO)O2)c(=O)n1 [Decitabine] (partner 2 µM)
The essentials:
as §1

Compound in the test “AZD1208 + Vorinostat”: N[C@@H]1CCCN(c2c(/C=C3\SC(=O)NC3=O)cccc2-c2ccccc2)C1 [AZD1208] + O=C(CCCCCCC(=O)Nc1ccccc1)NO [Vorinostat] (partner 1 µM)
The essentials: as §1

Take SW 900: the relative viability is 0.509 with XMD14-99 + Vorinostat (first compound 0.08 µM); 0.667 with XMD14-99 + Vorinostat (first compound 0.8 µM); 0.489 with XMD14-99 + Vorinostat (first compound 2.53 µM); 0.432 with XMD14-99 + Vorinostat (first compound 8 µM); 0.456 in the test with AZD1208 + Dasatinib (first compound 0.08 µM); 0.693 in the test with AZD1208 + Dasatinib (first compound 0.253 µM). The relative viability in the test with AZD1208 + Dasatinib (first compound 0.8 µM) was 0.427; with AZD1208 + Dasatinib (first compound 2.53 µM), 0.547; with AZD1208 + Dasatinib (first compound 8 µM) it was 0.367; with AZD1208 + Decitabine (first compound 0.08 µM) it was 0.456; with AZD1208 + Decitabine (first compound 0.253 µM) it was 0.407; with AZD1208 + Decitabine (first compound 0.8 µM), 0.382. Also, the relative viability in the test with AZD1208 + Decitabine (first compound 2.53 µM) amounted to 0.395; with AZD1208 + Decitabine (first compound 8 µM), 0.444; with AZD1208 + Vorinostat (first compound 0.08 µM) it was 0.519; with AZD1208 + Vorinostat (first compound 0.253 µM), 0.638; in the test with AZD1208 + Vorinostat (first compound 0.8 µM) it was 0.35; with AZD1208 + Vorinostat (first compound 2.53 µM), 0.605. Besides, the relative viability with AZD1208 + Vorinostat (first compound 8 µM) came out at 0.512.
In the case of NCI-H1395, the relative viability with XMD14-99 + Vorinostat (first compound 0.08 µM) worked out at 0.889; with XMD14-99 + Vorinostat (first compound 0.8 µM), 0.891; in the test with XMD14-99 + Vorinostat (first compound 2.53 µM), 0.761; in the test with XMD14-99 + Vorinostat (first compound 8 µM) it was 0.527; in the test with AZD1208 + Dasatinib (first compound 0.08 µM) it was 0.453; with AZD1208 + Dasatinib (first compound 0.253 µM), 0.373. Further, the relative viability with AZD1208 + Dasatinib (first compound 0.8 µM) worked out at 0.36; with AZD1208 + Dasatinib (first compound 2.53 µM), 0.38; with AZD1208 + Dasatinib (first compound 8 µM) it was 0.356; with AZD1208 + Decitabine (first compound 0.08 µM), 0.724; with AZD1208 + Decitabine (first compound 0.253 µM) it was 0.785; with AZD1208 + Decitabine (first compound 0.8 µM), 0.714. Besides, the relative viability with AZD1208 + Decitabine (first compound 2.53 µM) turned out to be 0.719; with AZD1208 + Decitabine (first compound 8 µM), 0.685; with AZD1208 + Vorinostat (first compound 0.08 µM), 0.974; in the test with AZD1208 + Vorinostat (first compound 0.253 µM), 0.731; in the test with AZD1208 + Vorinostat (first compound 0.8 µM), 0.632; with AZD1208 + Vorinostat (first compound 2.53 µM), 0.698. Moreover, in the test with AZD1208 + Vorinostat (first compound 8 µM), the relative viability came to 0.546.
In the case of NCI-H358, the relative viability in the test with XMD14-99 + Vorinostat (first compound 0.08 µM) is 0.686; with XMD14-99 + Vorinostat (first compound 0.8 µM), 0.653; with XMD14-99 + Vorinostat (first compound 2.53 µM) it was 0.553; with XMD14-99 + Vorinostat (first compound 8 µM) it was 0.309; with AZD1208 + Dasatinib (first compound 0.08 µM) it was 0.138; in the test with AZD1208 + Dasatinib (first compound 0.253 µM), 0.142. Besides, the relative viability was 0.139 with AZD1208 + Dasatinib (first compound 0.8 µM); 0.116 in the test with AZD1208 + Dasatinib (first compound 2.53 µM); 0.142 with AZD1208 + Dasatinib (first compound 8 µM); 0.206 in the test with AZD1208 + Decitabine (first compound 0.08 µM); 0.188 in the test with AZD1208 + Decitabine (first compound 0.253 µM); 0.185 in the test with AZD1208 + Decitabine (first compound 0.8 µM). The relative viability in the test with AZD1208 + Decitabine (first compound 2.53 µM) was 0.207; with AZD1208 + Decitabine (first compound 8 µM), 0.197; with AZD1208 + Vorinostat (first compound 0.08 µM) it was 0.719; in the test with AZD1208 + Vorinostat (first compound 0.253 µM), 0.646; in the test with AZD1208 + Vorinostat (first compound 0.8 µM), 0.576; with AZD1208 + Vorinostat (first compound 2.53 µM), 0.678. Moreover, the relative viability with AZD1208 + Vorinostat (first compound 8 µM) is 0.618.
Turning to PC-14, the relative viability came to 0.636 with XMD14-99 + Vorinostat (first compound 0.08 µM); 0.628 in the test with XMD14-99 + Vorinostat (first compound 0.8 µM); 0.438 with XMD14-99 + Vorinostat (first compound 2.53 µM); 0.285 with XMD14-99 + Vorinostat (first compound 8 µM); 0.268 in the test with AZD1208 + Dasatinib (first compound 0.08 µM); 0.257 with AZD1208 + Dasatinib (first compound 0.253 µM). The relative viability with AZD1208 + Dasatinib (first compound 0.8 µM) worked out at 0.201; in the test with AZD1208 + Dasatinib (first compound 2.53 µM), 0.198; in the test with AZD1208 + Dasatinib (first compound 8 µM), 0.169; in the test with AZD1208 + Decitabine (first compound 0.08 µM), 0.254; with AZD1208 + Decitabine (first compound 0.253 µM) it was 0.209; with AZD1208 + Decitabine (first compound 0.8 µM), 0.224. Moreover, the relative viability in the test with AZD1208 + Decitabine (first compound 2.53 µM) came to 0.203; with AZD1208 + Decitabine (first compound 8 µM), 0.207; with AZD1208 + Vorinostat (first compound 0.08 µM), 0.674; with AZD1208 + Vorinostat (first compound 0.253 µM) it was 0.78; with AZD1208 + Vorinostat (first compound 0.8 µM) it was 0.719; with AZD1208 + Vorinostat (first compound 2.53 µM), 0.687. In the test with AZD1208 + Vorinostat (first compound 8 µM), the relative viability was 0.604.
